Patent publication US12065442B2, “Tropomyosin receptor kinase (TRK) degradation compounds and methods of use” (Cullgen (Shanghai), Inc., priority 2018, dated 2024)

System: KM12 cells
Test: Cell viability assay (CellTiter-Glo) in KM12 cells
Format: cell-based
Details: Homo sapiens, 72 h; Table 3; KM12 cell viability, CellTiter-Glo, 3 days; read-out: IC50

SMILES	IC50
O=C(CN1CCN(c2ccc(C(=O)Nc3n[nH]c4ccc(Cc5cc(F)cc(F)c5)cc34)c(NC3CCOCC3)c2)CC1)NCCCCCCCCNc1cccc2c1C(=O)N(C1CCC(=O)NC1=O)C2=O (stereo not shown) [TR-148, N-(5-(3,5-Difluorobenzyl)-1H-indazol-3-yl)-4-(4-(2-((8-((2-(2,6-dioxopiperidin-3-yl)-1,3-dioxoisoindolin-4-yl)amino)octyl)amino)-2-oxoethyl)piperazin-1-yl)-2-((tetrahydro-2H-pyran-4-yl)amino)benzamide]	23.2 nM
O=C(CN1CCN(c2ccc(C(=O)Nc3n[nH]c4ccc(Cc5cc(F)cc(F)c5)cc34)c(NC3CCOCC3)c2)CC1)NCCCCCNc1cccc2c1C(=O)N(C1CCC(=O)NC1=O)C2=O (stereo not shown) [TR-149, N-(5-(3,5-Difluorobenzyl)-1H-indazol-3-yl)-4-(4-(2-((5-((2-(2,6-dioxopiperidin-3-yl)-1,3-dioxoisoindolin-4-yl)amino)pentyl)amino)-2-oxoethyl)piperazin-1-yl)-2-((tetrahydro-2H-pyran-4-yl)amino)benzamide]	4.6 nM
O=C(CN1CCN(c2ccc(C(=O)Nc3n[nH]c4ccc(Cc5cc(F)cc(F)c5)cc34)c(NC3CCOCC3)c2)CC1)NCCOCCOCCOCCOCCNc1cccc2c1C(=O)N(C1CCC(=O)NC1=O)C2=O (stereo not shown) [TR-150, N-(5-(3,5-Difluorobenzyl)-1H-indazol-3-yl)-4-(4-(17-((2-(2,6-dioxopiperidin-3-yl)-1,3-dioxoisoindolin-4-yl)amino)-2-oxo-6,9,12,15-tetraoxa-3-azaheptadecyl)piperazin-1-yl)-2-((tetrahydro-2H-pyran-4-yl)amino)benzamide]	16.6 nM
O=C(CN1CCN(c2ccc(C(=O)Nc3n[nH]c4ccc(Cc5cc(F)cc(F)c5)cc34)c(NC3CCOCC3)c2)CC1)NCCOCCNc1cccc2c1C(=O)N(C1CCC(=O)NC1=O)C2=O (stereo not shown) [TR-151, N-(5-(3,5-Difluorobenzyl)-1H-indazol-3-yl)-4-(4-(2-((2-(2-((2-(2,6-dioxopiperidin-3-yl)-1,3-dioxoisoindolin-4-yl)amino)ethoxy)ethyl)amino)-2-oxoethyl)piperazin-1-yl)-2-((tetrahydro-2H-pyran-4-yl)amino)benzamide]	3.1 nM
O=C(CN1CCN(c2ccc(C(=O)Nc3n[nH]c4ccc(Cc5cc(F)cc(F)c5)cc34)c(NC3CCOCC3)c2)CC1)NCCCNc1cccc2c1C(=O)N(C1CCC(=O)NC1=O)C2=O (stereo not shown) [TR-152, N-(5-(3,5-Difluorobenzyl)-1H-indazol-3-yl)-4-(4-(2-((3-((2-(2,6-dioxopiperidin-3-yl)-1,3-dioxoisoindolin-4-yl)amino)propyl)amino)-2-oxoethyl)piperazin-1-yl)-2-((tetrahydro-2H-pyran-4-yl)amino)benzamide]	3.1 nM
O=C(CN1CCN(c2ccc(C(=O)Nc3n[nH]c4ccc(Cc5cc(F)cc(F)c5)cc34)c(NC3CCOCC3)c2)CC1)NCCOCCOCCNc1cccc2c1C(=O)N(C1CCC(=O)NC1=O)C2=O (stereo not shown) [TR-153, N-(5-(3,5-Difluorobenzyl)-1H-indazol-3-yl)-4-(4-(2-((2-(2-(2-((2-(2,6-dioxopiperidin-3-yl)-1,3-dioxoisoindolin-4-yl)amino)ethoxy)ethoxy)ethyl)amino)-2-oxoethyl)piperazin-1-yl)-2-((tetrahydro-2H-pyran-4-yl)amino)benzamide]	6.3 nM
O=C(CN1CCN(c2ccc(C(=O)Nc3n[nH]c4ccc(Cc5cc(F)cc(F)c5)cc34)c(NC3CCOCC3)c2)CC1)NCCCCCCCNc1cccc2c1C(=O)N(C1CCC(=O)NC1=O)C2=O (stereo not shown) [TR-154, N-(5-(3,5-Difluorobenzyl)-1H-indazol-3-yl)-4-(4-(2-((7-((2-(2,6-dioxopiperidin-3-yl)-1,3-dioxoisoindolin-4-yl)amino)heptyl)amino)-2-oxoethyl)piperazin-1-yl)-2-((tetrahydro-2H-pyran-4-yl)amino)benzamide]	20.8 nM
O=C(CN1CCN(c2ccc(C(=O)Nc3n[nH]c4ccc(Cc5cc(F)cc(F)c5)cc34)c(NC3CCOCC3)c2)CC1)NCCCCNc1cccc2c1C(=O)N(C1CCC(=O)NC1=O)C2=O (stereo not shown) [TR-155, N-(5-(3,5-Difluorobenzyl)-1H-indazol-3-yl)-4-(4-(2-((4-((2-(2,6-dioxopiperidin-3-yl)-1,3-dioxoisoindolin-4-yl)amino)butyl)amino)-2-oxoethyl)piperazin-1-yl)-2-((tetrahydro-2H-pyran-4-yl)amino)benzamide]	2.9 nM
O=C(CN1CCN(c2ccc(C(=O)Nc3n[nH]c4ccc(Cc5cc(F)cc(F)c5)cc34)c(NC3CCOCC3)c2)CC1)NCCCCNc1ccc2c(c1)C(=O)N(C1CCC(=O)NC1=O)C2=O (stereo not shown) [TR-156, N-(5-(3,5-Difluorobenzyl)-1H-indazol-3-yl)-4-(4-(2-((4-((2-(2,6-dioxopiperidin-3-yl)-1,3-dioxoisoindolin-5-yl)amino)butyl)amino)-2-oxoethyl)piperazin-1-yl)-2-((tetrahydro-2H-pyran-4-yl)amino)benzamide]	3.3 nM
O=C(CN1CCN(c2ccc(C(=O)Nc3n[nH]c4ccc(Cc5cc(F)cc(F)c5)cc34)c(NC3CCOCC3)c2)CC1)NCCCCCCCNc1ccc2c(c1)C(=O)N(C1CCC(=O)NC1=O)C2=O (stereo not shown) [TR-157, N-(5-(3,5-Difluorobenzyl)-1H-indazol-3-yl)-4-(4-(2-((7-((2-(2,6-dioxopiperidin-3-yl)-1,3-dioxoisoindolin-5-yl)amino)heptyl)amino)-2-oxoethyl)piperazin-1-yl)-2-((tetrahydro-2H-pyran-4-yl)amino)benzamide]	8.3 nM
O=C(CN1CCN(c2ccc(C(=O)Nc3n[nH]c4ccc(Cc5cc(F)cc(F)c5)cc34)c(NC3CCOCC3)c2)CC1)NCCCCCCCCNc1ccc2c(c1)C(=O)N(C1CCC(=O)NC1=O)C2=O (stereo not shown) [TR-159, N-(5-(3,5-Difluorobenzyl)-1H-indazol-3-yl)-4-(4-(2-((8-((2-(2,6-dioxopiperidin-3-yl)-1,3-dioxoisoindolin-5-yl)amino)octyl)amino)-2-oxoethyl)piperazin-1-yl)-2-((tetrahydro-2H-pyran-4-yl)amino)benzamide]	30.4 nM
O=C(CN1CCN(c2ccc(C(=O)Nc3n[nH]c4ccc(Cc5cc(F)cc(F)c5)cc34)c(NC3CCOCC3)c2)CC1)NCCOCCOCCOCCOCCNc1ccc2c(c1)C(=O)N(C1CCC(=O)NC1=O)C2=O (stereo not shown) [TR-160, N-(5-(3,5-Difluorobenzyl)-1H-indazol-3-yl)-4-(4-(17-((2-(2,6-dioxopiperidin-3-yl)-1,3-dioxoisoindolin-5-yl)amino)-2-oxo-6,9,12,15-tetraoxa-3-azaheptadecyl)piperazin-1-yl)-2-((tetrahydro-2H-pyran-4-yl)amino)benzamide]	4.8 nM
O=C(CN1CCN(c2ccc(C(=O)Nc3n[nH]c4ccc(Cc5cc(F)cc(F)c5)cc34)c(NC3CCOCC3)c2)CC1)NCCOCCNc1ccc2c(c1)C(=O)N(C1CCC(=O)NC1=O)C2=O (stereo not shown) [TR-161, N-(5-(3,5-Difluorobenzyl)-1H-indazol-3-yl)-4-(4-(2-((2-(2-((2-(2,6-dioxopiperidin-3-yl)-1,3-dioxoisoindolin-5-yl)amino)ethoxy)ethyl)amino)-2-oxoethyl)piperazin-1-yl)-2-((tetrahydro-2H-pyran-4-yl)amino)benzamide]	4.7 nM
O=C(CN1CCN(c2ccc(C(=O)Nc3n[nH]c4ccc(Cc5cc(F)cc(F)c5)cc34)c(NC3CCOCC3)c2)CC1)NCCOCCOCCNc1ccc2c(c1)C(=O)N(C1CCC(=O)NC1=O)C2=O (stereo not shown) [TR-162, N-(5-(3,5-Difluorobenzyl)-1H-indazol-3-yl)-4-(4-(2-((2-(2-(2-((2-(2,6-dioxopiperidin-3-yl)-1,3-dioxoisoindolin-5-yl)amino)ethoxy)ethoxy)ethyl)amino)-2-oxoethyl)piperazin-1-yl)-2-((tetrahydro-2H-pyran-4-yl)amino)benzamide]	4.1 nM
O=C(CN1CCN(c2ccc(C(=O)Nc3n[nH]c4ccc(Cc5cc(F)cc(F)c5)cc34)c(NC3CCOCC3)c2)CC1)NCCOCCOCCOCCNc1ccc2c(c1)C(=O)N(C1CCC(=O)NC1=O)C2=O (stereo not shown) [TR-163, N-(5-(3,5-Difluorobenzyl)-1H-indazol-3-yl)-4-(4-(14-((2-(2,6-dioxopiperidin-3-yl)-1,3-dioxoisoindolin-5-yl)amino)-2-oxo-6,9,12-trioxa-3-azatetradecyl)piperazin-1-yl)-2-((tetrahydro-2H-pyran-4-yl)amino)benzamide]	6.3 nM
O=C(CN1CCN(c2ccc(C(=O)Nc3n[nH]c4ccc(Cc5cc(F)cc(F)c5)cc34)c(NC3CCOCC3)c2)CC1)NCCCCCNc1ccc2c(c1)C(=O)N(C1CCC(=O)NC1=O)C2=O (stereo not shown) [TR-164, N-(5-(3,5-Difluorobenzyl)-1H-indazol-3-yl)-4-(4-(2-((5-((2-(2,6-dioxopiperidin-3-yl)-1,3-dioxoisoindolin-5-yl)amino)pentyl)amino)-2-oxoethyl)piperazin-1-yl)-2-((tetrahydro-2H-pyran-4-yl)amino)benzamide]	7.8 nM
O=C(CN1CCN(c2ccc(C(=O)Nc3n[nH]c4ccc(Cc5cc(F)cc(F)c5)cc34)c(NC3CCOCC3)c2)CC1)NCCNc1ccc2c(c1)C(=O)N(C1CCC(=O)NC1=O)C2=O (stereo not shown) [TR-165, N-(5-(3,5-Difluorobenzyl)-1H-indazol-3-yl)-4-(4-(2-((2-((2-(2,6-dioxopiperidin-3-yl)-1,3-dioxoisoindolin-5-yl)amino)ethyl)amino)-2-oxoethyl)piperazin-1-yl)-2-((tetrahydro-2H-pyran-4-yl)amino)benzamide]	3.5 nM
O=C(CN1CCN(c2ccc(C(=O)Nc3n[nH]c4ccc(Cc5cc(F)cc(F)c5)cc34)c(NC3CCOCC3)c2)CC1)NCCOCCOCCOCCOCCOCCNc1ccc2c(c1)C(=O)N(C1CCC(=O)NC1=O)C2=O (stereo not shown) [TR-166, N-(5-(3,5-Difluorobenzyl)-1H-indazol-3-yl)-4-(4-(20-((2-(2,6-dioxopiperidin-3-yl)-1,3-dioxoisoindolin-5-yl)amino)-2-oxo-6,9,12,15,18-pentaoxa-3-azaicosyl)piperazin-1-yl)-2-((tetrahydro-2H-pyran-4-yl)amino)benzamide]	4.4 nM
O=C(CN1CCN(c2ccc(C(=O)Nc3n[nH]c4ccc(Cc5cc(F)cc(F)c5)cc34)c(NC3CCOCC3)c2)CC1)NCCCNc1ccc2c(c1)C(=O)N(C1CCC(=O)NC1=O)C2=O (stereo not shown) [TR-167, N-(5-(3,5-Difluorobenzyl)-1H-indazol-3-yl)-4-(4-(2-((3-((2-(2,6-dioxopiperidin-3-yl)-1,3-dioxoisoindolin-5-yl)amino)propyl)amino)-2-oxoethyl)piperazin-1-yl)-2-((tetrahydro-2H-pyran-4-yl)amino)benzamide]	3.3 nM
